What is called melting point is the temperature, or range, at which the solid turns liquid. Turning to `O=C1C[C@H](O)C[C@@H](/C=C/c2cnc3ccccc3c2Sc2ccc(F)cc2)O1` [Compound A2], the melting point was in the range of 130 to 132 °C.
Regarding `CC(C)c1ccc(Sc2c(/C=C/[C@@H]3C[C@@H](O)CC(=O)O3)cnc3ccccc23)cc1` [Compound A4], the melting point lay within 147 to 148 °C.
On to `CC(C)c1ccc(Sc2c(/C=C/[C@@H]3C[C@@H](O)CC(=O)O3)cnc3cc(Cl)c(F)cc23)cc1` [Compound A12], for which the melting point fell in the range of 175 to 177 °C.
Compound `COc1cccc(Sc2cc3ncc(/C=C/[C@@H]4C[C@@H](O)CC(=O)O4)c(Sc4cccc(OC)c4)c3cc2Sc2cccc(OC)c2)c1` [Compound A31] came in with a melting point of 57 to 59 °C.
The compound `CC(C)c1ccc(Sc2cc3ncc(/C=C/[C@@H]4C[C@@H](O)CC(=O)O4)c(Sc4ccc(C(C)C)cc4)c3cc2Sc2ccc(C(C)C)cc2)cc1` [Compound A32] returned a melting point of 182 to 184 °C.

These data come from US8349867B2, “Quinoline compounds, intermediates, preparation methods and uses thereof” (Shanghai Institute of Pharmaceutical Industry, priority 2006, dated 2013).
